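Each compound was tested at five concentrations against cells in 96-well plates for 48 hours. Definition used: TGI = concentration required for complete inhibition of growth.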
Experiments:
Test in all cases: NCI tumour cell line growth inhibition, 48 h
[1] = test system: 786-0 renal
[2] = test system: A549 NSCLC
[3] = test system: ACHN renal
[4] = test system: BT-549 breast
[5] = test system: CAKI-1 renal
[6] = test system: CCRF-CEM leukemia
[7] = test system: COLO 205 colon
[8] = test system: DU-145 prostate
[9] = test system: EKVX NSCLC
[10] = test system: HCC-2998 colon
[11] = test system: HCT-116 colon
[12] = test system: HCT-15 colon
[13] = test system: HOP-62 NSCLC
[14] = test system: HOP-92 NSCLC
[15] = test system: HT29 colon
[16] = test system: IGROV1 ovarian
[17] = test system: K-562 leukemia
[18] = test system: KM12 colon
[19] = test system: LOX IMVI melanoma
[20] = test system: M14 melanoma
[21] = test system: MALME-3M melanoma
[22] = test system: MCF7 breast
[23] = test system: MDA-MB-231 breast
[24] = test system: MDA-MB-435
[25] = test system: MDA-N
[26] = test system: MOLT-4 leukemia
[27] = test system: NCI-H226 lung
[28] = test system: NCI-H23 lung
[29] = test system: NCI-H460 lung
[30] = test system: NCI-H522 lung
[31] = test system: NCI/ADR-RES ovarian
[32] = test system: OVCAR-3 ovarian
[33] = test system: OVCAR-4 ovarian
[34] = test system: OVCAR-5 ovarian
[35] = test system: OVCAR-8 ovarian
[36] = test system: PC-3 prostate
[37] = test system: RPMI-8226 leukemia
[38] = test system: RXF 393 renal
[39] = test system: SF-295 CNS
[40] = test system: SF-539 CNS
[41] = test system: SK-MEL-2 melanoma
[42] = test system: SK-MEL-28 melanoma
[43] = test system: SK-MEL-5 melanoma
[44] = test system: SK-OV-3 ovarian
[45] = test system: SN12C renal
[46] = test system: SNB-19 CNS
[47] = test system: SNB-75 CNS
[48] = test system: SR leukemia
[49] = test system: SW-620 colon
[50] = test system: T-47D breast
[51] = test system: TK-10 renal
[52] = test system: U251 CNS
[53] = test system: UACC-257 melanoma
[54] = test system: UACC-62 melanoma
[55] = test system: UO-31 renal
[56] = test system: A498 renal
[57] = test system: HL-60(TB) leukemia
[58] = test system: HS 578T breast
[59] = test system: SF-268 CNS

Measured: TGI

N#CCCN(C(=O)Nc1ccccc1)[C@H]1CCCC[C@@H]1N(C(=O)Nc1ccccc1)c1ccccc1
> 100 µM: [1] | [2] | [3] | [4] | [5] | [6] | [7] | [8] | [9] | [10] | [11] | [12] | [13] | [14] | [15] | [16] | [17] | [18] | [19] | [20] | [21] | [22] | [23] | [24] | [25] | [26] | [27] | [28] | [29] | [30] | [31] | [32] | [33] | [34] | [35] | [36] | [37] | [38] | [39] | [40] | [41] | [42] | [43] | [44] | [45] | [46] | [47] | [48] | [49] | [50] | [51] | [52] | [53] | [54] | [55]

O=C(c1ccccc1Br)C(F)(F)F
> 100 µM: [1] | [56] | [2] | [3] | [4] | [5] | [6] | [7] | [8] | [9] | [10] | [11] | [12] | [57] | [13] | [58] | [15] | [16] | [17] | [18] | [19] | [20] | [21] | [22] | [23] | [24] | [25] | [26] | [27] | [28] | [29] | [30] | [31] | [32] | [33] | [34] | [35] | [36] | [37] | [59] | [39] | [40] | [42] | [43] | [44] | [45] | [46] | [47] | [48] | [49] | [50] | [51] | [52] | [54] | [55]

From PubChem BioAssay (NCI)
